Data reported in patent publication US20250073201A1, “COMPOSITIONS AND METHODS FOR TREATING ACUTE ALCOHOL INTAKE” (NEXT LEVEL HEALTH SCIENCES INC, priority 2021, published 2025).

System: hangover symptoms
Test: Testing of composition components on alcohol-induced (hangover) symptoms
Assay type: in vivo, human
Experimental: To test, various components of the compositions disclosed herein, individuals were selected to test the efficacy of various formulations. The scale employed during the testing of alcohol-induced symptoms was as follows: (a) no symptoms; (b) very mild symptoms; (c) mild symptoms; (d) moderate symptoms; (e) severe symptoms; and/or (f) very severe symptoms. […] The testing was carried out by a person of average size and build consuming standard alcoholic drinks (e.g., a beer) and the components below were consumed generally prior to consumption of alcohol. […]

[1] = man of average size, standard alcoholic drinks, taken prior to alcohol

With `O=C1c2c(O)cc(O)cc2O[C@H](c2cc(O)c(O)c(O)c2)[C@H]1O` [DHM, dihydromyricetin] the alcohol-induced symptoms (3 drinks, 300 mg DHM (without DHM: very mild symptoms)) was “elimination of all symptoms”, the alcohol-induced symptoms (3 drinks, less than 300 mg DHM (without DHM: very mild symptoms)) was “no reduction of symptoms” and the alcohol-induced symptoms (6 drinks, 300 mg DHM (without DHM: moderate symptoms)) was “reduction to mild symptoms”. The alcohol-induced symptoms (6 drinks, 750 mg DHM (without DHM: moderate symptoms)) was “reduction to very mild symptoms”, the alcohol-induced symptoms (6 drinks, 1200 mg DHM (without DHM: moderate symptoms)) was “elimination of all symptoms” and the alcohol-induced symptoms (9 drinks, 300 mg DHM (without DHM: severe symptoms)) was “no reduction of symptoms”. For the same compound, the alcohol-induced symptoms (9 drinks, 750 mg DHM (without DHM: severe symptoms)) was “reduction to moderate symptoms”, the alcohol-induced symptoms (9 drinks, 1200 mg DHM (without DHM: severe symptoms)) was “reduction to mild symptoms” and the alcohol-induced symptoms (9 drinks, 1500 mg DHM (without DHM: severe symptoms)) was “reduction to very mild symptoms”. For the same compound, the alcohol-induced symptoms (9 drinks, 1850 mg DHM (without DHM: severe symptoms)) was “reduction of all symptoms with the sole exception of fatigue”, the “elimination of all symptoms” value (12 and 15 drinks, all DHM doses tested) was “no dose of DHM, as tested, eliminated all symptoms” and the alcohol-induced symptoms (12 drinks, 750 mg DHM (without DHM: severe symptoms)) was “no reduction of symptoms”. The alcohol-induced symptoms (12 drinks, 1200 mg DHM (without DHM: severe symptoms)) was “no reduction of symptoms”, the alcohol-induced symptoms (12 drinks, 1500 mg DHM (without DHM: severe symptoms)) was “reduction to moderate symptoms” and the alcohol-induced symptoms (12 drinks, 1850 mg DHM (1500 mg gave moderate symptoms)) was “no further reduction in symptoms”. The alcohol-induced symptoms (12 drinks, 2400 mg DHM (1500 mg gave moderate symptoms)) was “no further reduction in symptoms”, the alcohol-induced symptoms (15 drinks, 1500 mg DHM (without DHM: very severe symptoms)) was “no reduction of symptoms” and the alcohol-induced symptoms (15 drinks, 1850 mg DHM (without DHM: very severe symptoms)) was “reduction to severe symptoms”. The alcohol-induced symptoms (15 drinks, 2400 mg DHM (1850 mg gave severe symptoms)) was “no further reduction of symptoms”, the alcohol-induced symptoms (15 drinks, 3600 mg DHM (1850 mg gave severe symptoms)) was “no further reduction of symptoms” and the alcohol-induced symptoms (18 drinks, 1850 mg DHM (without DHM: very severe symptoms)) was “no reduction of symptoms”. The alcohol-induced symptoms (18 drinks, 2400 mg DHM (without DHM: very severe symptoms)) was “no reduction of symptoms”, the alcohol-induced symptoms (18 drinks, 3600 mg DHM (without DHM: very severe symptoms)) was “no reduction of symptoms” and the alcohol-induced symptoms (18 drinks, 5000 mg DHM (without DHM: very severe symptoms)) was “no reduction of symptoms”. For the same compound, the “dosage above which no additional benefits were seen” value [1] was “about 1850 mg” and the “dosage at which benefits on hangover symptoms begin” value [1] was “about 300 mg”.
